This note sets out measurements from ChEMBL document CHEMBL1139529, “Design of small-sized libraries by combinatorial assembly of linkers and functional groups to a given scaffold: application to the structure-based optimization of a phosphodiesterase 4 inhibitor” (J Med Chem, 2005).

Broadly, the IC50 is the concentration that gives 50% inhibition. Higher therefore signals weaker potency in that assay.

The experiment has as its target Phosphodiesterase 4 (Bos taurus). The experiment can be described thus: In vitro inhibition of bovine smooth muscle phosphodiesterase 4.
On to `COc1ccc(-c2ccc(=O)n(CCCCCCN)n2)cc1OC`, for which the IC50 is given as 20 nM.

For the molecule `COc1ccc(-c2ccc(O)nn2)cc1OC`, the IC50 turned out to be 2000 nM.

For the molecule `COc1ccc(-c2ccc(=O)n(CCCCCCN=C(N)N)n2)cc1OC`, the IC50 is given as 60000 nM.

Regarding `COc1ccc(-c2ccc(=O)n(CCCCCc3ccccc3)n2)cc1OC`, the IC50 is on record as 0.9 nM.

With `COc1ccc(-c2ccc(=O)n(CCCCCCc3ccccc3)n2)cc1OC`, the IC50 is on record as 80 nM.

Turning to `COc1ccc(-c2ccc(=O)n(CCCc3ccccc3)n2)cc1OC`, the IC50 was found to be 20 nM.

For `COc1ccc(-c2ccc(=O)n(Cc3ccccc3)n2)cc1OC`, the IC50 is 60 nM.

In the case of `COc1ccc(-c2cc(CCCc3ccccc3)c(O)nn2)cc1OC`, the IC50 is given as > 10000 nM.

Turning to `COc1ccc(-c2cc(Cc3ccccc3)c(O)nn2)cc1OC`, the IC50 was found to be 8000 nM.
